pIC50: −log10 of the molar value.
How the values were obtained:
Assay type in all cases: biochemical
[1] = biological target: Human Axl (Homo sapiens (Human), UniProt P30530, Q764R); assay: Human AXL kinase assay (33P radiometric, KinaseProfiler); settings: 10 μM ATP
Experimental: (§1) Kinase activity and compound inhibition were investigated using the ^33P-Phosphoryl transfer radiometric kinase assay, performed using the KinaseProfiler™ service of Eurofins Pharma Discovery Services UK Limited. Dose-response experiments were performed using nine compound concentrations in a 96-well microtiter plate. For each assay, all compounds were prepared to a 50× final assay concentration (50 μM) in 100% DMSO, then diluted in a half-log series, with the final top concentration at 1 μM. This working stock of the compound was added to the assay well as the first component in the reaction, followed by the remaining components as detailed in the following assay protocols below. The positive control wells (100% kinase activity) contain all components of the reaction including 2% DMSO (control for solvent effects), except the compound of interest. Blank wells contain all components of the reaction, with the reference inhibitor, staurosporine. This reference compound was used to abolish kinase activity and generated the 0% kinase activity base-line. IC50 values were calculated by nonlinear regression analysis using the sigmoidal dose-response (variable slope) curve fit on XLFit version 5.3 (ID Business Solutions).
Human Axl (residues H473-A894 with Q764R, 161 nM) was incubated with 8 mM MOPS pH 7.0, 0.2 mM EDTA, 250 μM KKSRGDYMTMQIG (SEQ ID NO. 43), 10 mM magnesium acetate and 10 μM [γ-33P-ATP]. The reaction was initiated by the addition of the Mg/ATP mix. After incubation for 40 minutes at room temperature, the reaction was stopped by the addition of phosphoric acid to a concentration of 0.5%. A reaction aliquot of 10 μL was then spotted onto a P30 filtermat and washed four times for 4 minutes in 0.425% phosphoric acid and once in methanol prior to drying and scintillation counting. Incorporated ^33P was measured using the Wallac Microbeta scintillation counter (Perkin Elmer).

[2] = biological target: Mer (Homo sapiens (Human), UniProt Q12866); assay: Human Mer kinase assay (33P radiometric, KinaseProfiler); settings: 10 μM ATP
Experimental: as §1
Human Mer (residues R557-E882 with H628Q and R794A, 0.7 nM) was incubated with 8 mM MOPS pH 7.0, 0.2 mM EDTA, 30 mM NaCl, 250 μM GGMEDIYFEFMGGKKK (SEQ ID NO. 44), 10 mM magnesium acetate, and 10 μM [γ-33P-ATP]. The reaction was initiated by the addition of the Mg/ATP mix. After incubation for 40 minutes at room temperature, the reaction was stopped by the addition of phosphoric acid to a concentration of 0.5%. A reaction aliquot of 10 μL was then spotted onto a P30 filtermat and washed four times for 4 minutes in 0.425% phosphoric acid and once in methanol prior to drying and scintillation counting. Incorporated 33P was measured using the Wallac Microbeta scintillation counter (Perkin Elmer).

[3] = biological target: Met (Homo sapiens (Human), UniProt P08581); assay: Human Met kinase assay (33P radiometric, KinaseProfiler); settings: 10 μM ATP, read-out: c-Met IC50
Experimental: as §1
Human Met (residues R974-S1390 with A1209G and V1290L, 3.4 nM) was incubated with 8 mM MOPS pH 7.0, 0.2 mM EDTA, 250 µM KKKGQEEEYVFIE (SEQ ID NO. 45), 1 mM sodium orthovanadate, 5 mM […], 10 mM magnesium acetate, and 10 μM [γ-33P-ATP]. The reaction was initiated by the addition of the Mg/ATP mix. After incubation for 40 minutes at room temperature, the reaction was stopped by the addition of phosphoric acid to a concentration of 0.5%. A reaction aliquot of 10 μL was then spotted onto a P30 filtermat and washed four times for 4 minutes in 0.425% phosphoric acid and once in methanol prior to drying and scintillation counting. Incorporated 33P was measured using the Wallac Microbeta scintillation counter (Perkin Elmer).

Chain of Human Axl (P30530 473-894 Q764R): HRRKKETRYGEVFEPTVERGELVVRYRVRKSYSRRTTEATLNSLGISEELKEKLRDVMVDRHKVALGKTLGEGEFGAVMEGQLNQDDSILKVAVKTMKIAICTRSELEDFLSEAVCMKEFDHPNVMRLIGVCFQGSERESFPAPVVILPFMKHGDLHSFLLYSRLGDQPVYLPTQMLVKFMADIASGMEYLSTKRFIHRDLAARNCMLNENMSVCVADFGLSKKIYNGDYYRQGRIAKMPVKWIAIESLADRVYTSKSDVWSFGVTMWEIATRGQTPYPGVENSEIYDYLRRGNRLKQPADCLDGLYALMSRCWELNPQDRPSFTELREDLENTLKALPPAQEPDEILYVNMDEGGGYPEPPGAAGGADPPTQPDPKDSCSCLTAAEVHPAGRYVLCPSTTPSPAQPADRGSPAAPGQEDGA
Chain of Mer (Q12866 557-882): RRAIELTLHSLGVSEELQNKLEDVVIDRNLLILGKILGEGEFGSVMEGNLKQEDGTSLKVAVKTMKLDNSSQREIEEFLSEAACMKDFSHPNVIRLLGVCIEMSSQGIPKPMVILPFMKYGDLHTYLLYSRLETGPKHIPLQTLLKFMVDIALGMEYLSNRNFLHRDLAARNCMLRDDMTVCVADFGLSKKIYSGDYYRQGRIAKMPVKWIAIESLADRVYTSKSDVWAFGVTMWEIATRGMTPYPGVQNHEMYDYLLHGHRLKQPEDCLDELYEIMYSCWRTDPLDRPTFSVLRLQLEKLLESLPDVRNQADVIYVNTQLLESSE

| pIC50 [1] | pIC50 [2] | pIC50 [3] | Compound |
| --- | --- | --- | --- |
| 6.00 to 7.00 | 6.00 to 7.00 | 7.00 to 8.00 | COc1cnc2c(Oc3ccc(NC(=O)C4(C(=O)Nc5ccc(F)cc5)CC4)cc3)ncnc2c1 [Compound 16, 1-N′-(4-fluorophenyl)-1-N-[4-(7-methoxy-pyrido[3,2-d]pyrimidin-4-yl)oxyphenyl]cyclo-propane-1,1-dicarboxamide] |
| 6.00 to 7.00 | 6.00 to 7.00 | 6.00 to 7.00 | Cc1cc2ncnc(Oc3ccc(NC(=O)C4(C(=O)Nc5ccc(F)cc5)CC4)cc3)c2nc1C [Compound 43, 1-N-[4-(6,7-dimethyl-pyrido[3,2-d]pyrimidin-4-yl)oxyphenyl]-1-N′-(4-fluorophenyl)cyclo-propane-1,1-dicarboxamide] |
| 6.00 to 7.00 | 6.00 to 7.00 | 6.00 to 7.00 | O=C(Nc1ccc(F)cc1)C1(C(=O)Nc2ccc(Oc3ncnc4cc5c(nc34)CCCC5)cc2)CC1 [Compound 52, 1-N′-(4-fluorophenyl)-1-N-[4-(6,7,8,9-tetrahydro-pyrimido[5,4-b]quinolin-4-yloxy)phenyl]cyclo-propane-1,1-dicarboxamide] |
| 6.00 to 7.00 | 7.00 to 8.00 | 6.00 to 7.00 | COc1cc2ncnc(Oc3ccc(NC(=O)C4(C(=O)Nc5ccc(F)cc5)CC4)cc3)c2nc1C#N [Compound 57, 1-N-[4-(6-cyano-7-methoxypyrido[3,2-d]pyrimidin-4-yl)oxyphenyl]-1-N′-(4-fluorophenyl)cyclopropane-1,1-dicarboxamide] |
| 6.00 to 7.00 | 6.00 to 7.00 | 6.00 to 7.00 | O=C(Nc1ccc(F)cc1)C1(C(=O)Nc2ccc(Oc3ncnc4cnccc34)cc2)CC1 [Compound 85, 1-N′-(4-fluorophenyl)-1-N-(4-pyrido[3,4-d]pyrimidin-4-yloxyphenyl)cyclopropane-1,1-dicarboxamide] |
| 6.00 to 7.00 | 6.00 to 7.00 | < 6.00 | O=C(Nc1ccc(F)cc1)C1(C(=O)Nc2ccc(Oc3ncnc4cnc(Cl)cc34)cc2)CC1 [Compound 88, 1-N-[4-(6-chloropyrido[3,4-d]pyrimidin-4-yl)oxy-phenyl]-1-N′-(4-fluoro-phenyl)cyclopropane-1,1-dicarboxamide] |
| 6.00 to 7.00 | 6.00 to 7.00 | 6.00 to 7.00 | O=C(Nc1ccc(F)cc1)C1(C(=O)Nc2ccc(Oc3ncnc4ccncc34)cc2)CC1 [Compound 95, 1-N′-(4-fluorophenyl)-1-N-(4-pyrido[4,3-d]pyrimidin-4-yloxyphenyl)cyclo-propane-1,1-dicarboxamide] |
| 6.00 to 7.00 | 6.00 to 7.00 | 6.00 to 7.00 | O=C(Nc1ccc(F)cc1)C1(C(=O)Nc2ccc(Oc3ncnc4cc(Cl)ncc34)cc2)CC1 [Compound 101, 1-N-[4-(7-chloropyrido[4,3-d]pyrimidin-4-yl)oxy-phenyl]-1-N′-(4-fluorophenyl)cyclo-propane-1,1-dicarboxamide] |
| < 6.00 | 6.00 to 7.00 | < 6.00 | N#Cc1ccc2ncnc(Oc3ccc(NC(=O)C4(C(=O)Nc5ccc(F)cc5)CC4)cc3)c2c1 [Compound 106, 1-N-[4-(6-cyanoquinazolin-4-yl)oxyphenyl]-1-N′-(4-fluorophenyl)cyclopropane-1,1-dicarboxamide] |

From patent publication US11708367B2, “Compounds for the treatment of kinase-dependent disorders” (Exelixis, Inc., priority 2018, dated 2023)
